# Data from patent publication US8557580B2, “Methods and compositions for the differentiation of stem cells” (Cellular Dynamics International, Inc., priority 2009, dated 2013).
# Test system: Individualized ES cells
# Experiment: Attachment and survival of individualized ES cells seeded in TeSR medium with or without ROCK inhibitor
# Assay type: cell-based, human
# Conditions: H1152 at 1 uM, fibronectin-coated surfaces
# Method: Variations in input ES colony size and colony density can lead to substantial variability in performance of any differentiation method. Therefore, the dispersion of ES colonies into individual cells prior to initiating differentiation was investigated. Cultured populations of ES cells were dispersed or individualized with trypsin or TrypLE. Dispersed ES cells were then seeded in TeSR medium, with or without a ROCK inhibitor (H1152, 1 μM). Differentiation procedures described herein were performed with the individualized cultures.
# Furthermore, if the seeding density is too low (less than approximately 1×10^4 cells per cm^2), cells detach and lose viability even in the presence of a ROCK inhibitor. If seeded at too high a cell density (greater than 5×10^4 cells per cm^2), cells remain attached, but fail to differentiate into hematoendothelial progenitors. The optimum seeding density between these limits is dependent on the method used for cell expansion, the passage number, and the overall condition of the ES cells.
structure (smiles),measurement,value
Cc1cncc2cccc(S(=O)(=O)N3CCCNC[C@@H]3C)c12 [H1152],attachment and survival of individualized ES cells,do not attach and survive without the addition of a survival factor
